Reference: patent US20130012466A1 (priority 2006, published 2013)
Where two headings read alike, the source gives them in different places.

Tests used:
[1] = test system: Hep3B; assay: Cytotoxicity assay (cell titer-glo and calcein AM), Hep3B; details: Hep 3B, % error in parentheses
[2] = test system: NCI-H460; assay: Cytotoxicity assay (cell titer-glo and calcein AM), NCI-H460; details: NCI-H460, % error in parentheses
[3] = test system: A549; assay: Cytotoxicity assay (cell titer-glo and calcein AM), A549; details: A549, % error in parentheses
[4] = test system: MCF7; assay: Cytotoxicity assay (cell titer-glo and calcein AM), MCF7
[5] = test system: SF-268; assay: Cytotoxicity assay (cell titer-glo and calcein AM), SF-268; details: SF-268, % error in parentheses
[6] = test system: mouse mammary normal epithelial control cell line; assay: Cytotoxicity assay, normal control cell line
[7] = test system: SK-OV-3; assay: Cytotoxicity assay (cell titer-glo and calcein AM), SK-OV-3; details: SK-OV-3, % error in parentheses
[8] = test system: ADR-RES; assay: Cytotoxicity assay (cell titer-glo and calcein AM), ADR-RES; details: NCI/ADR RES, % error in parentheses
[9] = test system: Du145; assay: Cytotoxicity assay (cell titer-glo and calcein AM), Du145; details: Du145, % error in parentheses
[10] = read-out: Cytotoxicity IC50, Hep 3B, CTG, CTG (cell titer-glo) readout
[11] = read-out: Cytotoxicity IC50, Hep 3B, calcein, calcein AM readout
[12] = read-out: Cytotoxicity IC50, NCI-H460, CTG, CTG (cell titer-glo) readout
[13] = read-out: Cytotoxicity IC50, NCI-H460, calcein, calcein AM readout
[14] = read-out: Cytotoxicity IC50, A549, CTG, CTG (cell titer-glo) readout
[15] = read-out: Cytotoxicity IC50, A549, calcein, calcein AM readout
[16] = read-out: Cytotoxicity IC50, MCF7, CTG, CTG (cell titer-glo) readout, % error in parentheses
[17] = read-out: Cytotoxicity IC50, MCF7, calcein, calcein AM readout, % error in parentheses
[18] = read-out: Cytotoxicity IC50, SF-268, CTG, CTG (cell titer-glo) readout
[19] = read-out: Cytotoxicity IC50, SF-268, calcein, calcein AM readout
[20] = read-out: Cytotoxicity IC50, NmuMG, CTG, CTG (cell titer-glo) readout, % error in parentheses
[21] = read-out: Cytotoxicity IC50, NmuMG, calcein, calcein AM readout, % error in parentheses
[22] = read-out: Cytotoxicity IC50, SK-OV-3, CTG, CTG (cell titer-glo) readout
[23] = read-out: Cytotoxicity IC50, SK-OV-3, calcein, calcein AM readout
[24] = read-out: Cytotoxicity IC50, NCI/ADR RES, CTG, CTG (cell titer-glo) readout
[25] = read-out: Cytotoxicity IC50, NCI/ADR RES, calcein, calcein AM readout
[26] = read-out: Cytotoxicity IC50, Du145, CTG, CTG (cell titer-glo) readout
[27] = read-out: Cytotoxicity IC50, Du145, calcein, calcein AM readout

SMILES | IC50 [1, 10] [µM] | IC50 [1, 11] [µM] | IC50 [2, 12] [µM] | IC50 [2, 13] [µM] | IC50 [3, 14] [µM] | IC50 [3, 15] [µM] | IC50 [4, 16] [µM] | IC50 [4, 17] [µM] | IC50 [5, 18] [µM] | IC50 [5, 19] [µM] | IC50 [6, 20] [µM] | IC50 [6, 21] [µM] | IC50 [7, 22] [µM] | IC50 [7, 23] [µM] | IC50 [8, 24] [µM] | IC50 [8, 25] [µM] | IC50 [9, 26] [µM] | IC50 [9, 27] [µM]
CCCCCCCCCC(=O)N[C@@H]1[C@@H](O)[C@H](N(CC(=O)N[C@H]2CCc3cc(OC)c(OC)c(OC)c3-c3ccc(OC)c(=O)cc32)OC)O[C@H](CO)[C@H]1O [Col60, 3-deoxy-3-N-decanoyl-D-glucosaminoside] | 4.97 | > 10 | 3.98 | 5.88 | > 10 | > 10 | 3.36 | 3.04 | 5.03 | 4.13 | 8.37 | 6.04 | 4.38 | 4.15 | 4.98 | 4.65 | 4.79 | 6.2
COc1cc2c(c(OC)c1OC)-c1ccc(OC)c(=O)cc1[C@@H](NC(=O)CN(OC)[C@@H]1O[C@H](CF)[C@@H](O)[C@H](O)[C@H]1O)CC2 [Col54, 6-deoxy-6-fluoro-D-glucoside] | > 10 | 4.66 | 3.82 | 4.9 | > 10 | > 10 | > 10 | > 10 | > 10 | > 10 | > 10 | > 10 | > 10 | > 10 | > 10 | > 10 | > 10 | > 10
COc1cc2c(c(OC)c1OC)-c1ccc(OC)c(=O)cc1[C@@H](NC(=O)CN(OC)[C@@H]1O[C@H](C(=O)O)[C@@H](O)[C@H](O)[C@H]1O)CC2 [Col15, D-glucuronoside] | 3.28 | 3.44 | 1.08 | 0.96 | 2.21 | 3.92 | 0.99 | 4.41 | 1.17 | 1.02 | > 5 | > 5 | 1.07 | 2.88 | 1.66 | 1.54 | 1.27 | 1.64
CCCCCCCCCC(=O)NC[C@H]1O[C@@H](N(CC(=O)N[C@H]2CCc3cc(OC)c(OC)c(OC)c3-c3ccc(OC)c(=O)cc32)OC)[C@H](O)[C@@H](O)[C@@H]1O [Col59, 6-deoxy-6-N-decanoyl-D-glucosaminoside] | 5.7 | 7.36 | 4.95 | 5.21 | 8.14 | > 10 | 5.51 | 6.19 | 5.53 | 9.44 | > 10 | 8.43 | 5.08 | 7.11 | 5.16 | 7.97 | 5.28 | 7.09
COc1cc2c(c(OC)c1OC)-c1ccc(OC)c(=O)cc1[C@@H](NC(=O)CN(OC)[C@@H]1O[C@H](CO)[C@@H](O)C[C@H]1O)CC2 [Col3, 3-deoxy-D-glucoside] | 5.16 | 4.07 | 8.37 | 1.96 | 9.91 | > 10 | 3.25 | > 10 | 5.32 | 8.42 | > 10 | > 10 | 4.42 | 4.21 | > 10 | > 10 | > 10 | 6.56
COc1cc2c(c(OC)c1OC)-c1ccc(OC)c(=O)cc1[C@@H](NC(=O)CN(OC)[C@@H]1O[C@H](CN=[N+]=[N-])[C@H](O)[C@H](O)[C@H]1O)CC2 [Col43, 6-deoxy-6-azido-D-galactoside] | 5.3 | 3.89 | 5.01 | 2.36 | > 10 | > 10 | 4.91 | 3.68 | 5.15 | 8.46 | 3.82 | 3.93 | > 10 | 5.79 | 5.04 | 2.51 | 4.87 | 4.19
